Measurements published in patent US6375926B1, “Labelled elastase inhibitors” (Amersham International PLC, priority 1996, dated 2002).

Assays:
[1] = molecular target: T1, HLE (human leucocyte elastase) (Homo sapiens, UniProt P08246); assay: Measurement of HLE inhibition potency (kinact/Ki); assay type: biochemical; conditions: measured for non-radioactive iodine-labelled compounds and unlabelled chelate conjugates
T1 sequence (P08246 30-267): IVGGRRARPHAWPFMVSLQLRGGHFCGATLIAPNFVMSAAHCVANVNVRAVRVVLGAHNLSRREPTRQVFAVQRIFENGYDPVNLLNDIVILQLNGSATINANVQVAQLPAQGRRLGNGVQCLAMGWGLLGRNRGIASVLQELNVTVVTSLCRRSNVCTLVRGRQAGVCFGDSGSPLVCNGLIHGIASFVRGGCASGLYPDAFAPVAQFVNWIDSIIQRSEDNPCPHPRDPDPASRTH
Protocol: Inhibitor potency against HLE is described by the parameter kinact/Ki as previously reported [Knight et al., Biochem., 8160-8170, (1992)]. Lyophilised enzyme was reconstituted with TrisHCl buffer, 100 mM, 0.5M NaCl at 0.05 units/ml (approximately nanomolar concentration) in a final reaction volume of 1 ml to which was added methoxysucc-ala-ala-pro-val-pNA substrate (1 mM) and the elastase inhibitor dissolved in DMSO. The reaction was monitored by detecting the change of absorbance at 410 nm (hydrolysis of the substrate releasing p-nitroaniline) over a timescale of 25 minutes. Values of kinact/Ki were estimated according to the Knight et al method.

[2] = test system: isolated human white cells (granulocytes; monocytes + lymphocytes); assay: In vitro cell uptake in isolated human white cells; assay type: cell-based; conditions: for selectivity for granulocytes over a mixture of monocytes/lymphocytes: approximately equivalent numbers of monocytes/lymphocytes and granulocytes present; for % uptake in Gran. (granulocytes), WHITE CELLS / % uptake in Mon. (monocytes + lymphocytes), WHITE CELLS: isolated human white cells, 30 minutes at 37° C., radiolabelled compound
Protocol: Fresh blood (30-120 ml) was anticoagulated with 1.5% ACD solution and sedimented by addition of 2 ml Hespan per 10 ml blood for 90 minutes at room temperature. The leucocyte rich platelet rich plasma supernatant was removed and centrifuged at 150 g for 5 minutes, yielding a leucocyte rich pellet and platelet rich plasma (PRP). The PRP was centrifuged at 4000 g to pellet the platelets leaving a cell free plasma (CFP). The leucocyte pellet was resuspended in a 50:50 mixture of HBSS and CFP and incubated with the radioactive compound for 30 minutes at 37° C. Free radioactive material was then removed from the cells by addition of an excess of HBSS:CFP and centrifugation of the leucocytes at 150 g for 7 minutes. The supernatant and cell pellet were taken for radioactive counting for calculation of percentage cell uptake. The distribution of radioactivity within the cell pellet was assessed by separation of the cell types using Percoll density gradient centrifugation (38%, 55% and 73% Percoll in HBSS step gradients). The residual plasma and free activity was recovered from the top of the gradient, the mononuclear cells (lymphocytes and monocytes) from the interface between 38% and 55%, and the granulocytes were recovered from the interface between 55% and 73% Percoll.

[3] = test system: mixed human red/white cells (granulocytes, monocytes + lymphocytes, erythrocytes); assay: In vitro cell uptake in mixed human red/white cells; assay type: cell-based; conditions: radiolabelled compound
Protocol: The radioactive compound was also incubated with an isolated leucocyte preparation to which an erythrocyte fraction had been added back. The packed erythrocytes obtained after blood sedimentation were washed twice with HBSS and then resuspended in their original blood volume with HBSS. Leucocytes obtained from 30 ml blood were resuspended in 0.5 ml erythrocyte suspension and 0.5 ml CFP. The cell suspension was then incubated with compound as above. Analysis of the distribution of activity in the cell pellet in the presence of red blood cells was carried out using Ficoll-Hypaque discontinuous density gradients (densities 1.04, 1.077 and 1.119 g/ml Histopaque steps).

[4] = test system: human whole blood (granulocytes, monocytes + lymphocytes, erythrocytes); assay: In vitro cell uptake in human whole blood; assay type: cell-based; conditions: 37° C. for 1 hour, radiolabelled compound
Protocol: The radioactive compound was added to 1 ml whole blood anticoagulated with ACD and incubated at 37° C. for 1 hour. The blood was diluted with HBSS and the cellular component separated by centrifugation. Distribution of activity within the cellular pellet was assessed by separation of cell fractions on Ficoll-Hypaque gradients as above.

SMILES | Potency (1/(M·s)), kinact/Ki [1] [M⁻¹ s⁻¹] | kinact/KI ([1]; read-out: Potency (M/sec), kinact/Ki) [M⁻¹ s⁻¹] | selectivity for granulocytes over a mixture of monocytes/lymphocytes [2] | % uptake in Gran. (granulocytes), WHITE CELLS [2] [%] | % uptake in Mon. (monocytes + lymphocytes), WHITE CELLS [2] [%] | % uptake in Eryth. (erythrocytes), WHITE AND RED CELLS [3] [%] | % uptake in Gran. (granulocytes), WHITE AND RED CELLS [3] [%] | % uptake in Mon. (monocytes + lymphocytes), WHITE AND RED CELLS [3] [%] | % uptake in Eryth. (erythrocytes), WHOLE BLOOD [4] [%] | % uptake in Gran. (granulocytes), WHOLE BLOOD [4] [%] | % uptake in Mon. (monocytes + lymphocytes), WHOLE BLOOD [4] [%]
CCC1(CC)C(=O)N(C(=O)NCc2ccc(C(=O)NCC(C)(CNC(C)(C)C(C)=NO)CNC(C)(C)C(C)=NO)cc2)C1Oc1ccc(C(=O)N2CCN(C)CC2)cc1 (racemic) [Compound 38, Conjugate Between Chelate, 3,3,6,9,9-Pentamethyl-6-aminomethyl-4,8-diazaundecane-2,10-dionedioxime and 4-[4-[[(4-Methyl)piperazin-1-yl]carbonyl]phenoxy]-1-[(4-carboxy)benzylaminocarbonyl]-3,3-diethyl-2-azetidinone] | 58500 |  | some degree of selectivity for granulocytes | 75.5 | 8.5 | 28.4 | 32.5 | 6.7 |  |  | 
CCC1(CC)C(=O)N(C(=O)NCCC(=O)NCC(C)(CNC(C)(C)C(C)=NO)CNC(C)(C)C(C)=NO)C1Oc1ccc(C(=O)N2CCN(C)CC2)cc1 (racemic) [Compound 42, Conjugate Between Chelate, 3,3,6,9,9-pentamethyl-6-aminomethyl-4,8-diazaundecane-2,10-dionedioxime and 4-[4-[[(4-Methyl)piperazin-1-yl]carbonyl]phenoxy]-1-[(2-carboxy)ethylaminocarbonyl]-3,3-diethyl-2-azetidinone] | 1400 |  | some degree of selectivity for granulocytes | 8.4 | 1.2 | 18.9 | 2.5 | 6.9 |  |  | 
CCC1(CC)C(=O)N(C(=O)NCc2ccccc2)C1Oc1ccc(C(=O)NCC(C)(CNC(C)(C)C(C)=NO)CNC(C)(C)C(C)=NO)cc1 (racemic) [Compound 49, Conjugate Between Chelate, 3,3,6,9,9-pentamethyl-6-aminomethyl-4,8-diazaundecane-2,10-dionedioxime and 4-[(4-carboxy)phenoxy]-1-[benzylaminocarbonyl]-3,3-diethyl-2-azetidinone] | 20000 |  | some degree of selectivity for granulocytes | 47.3 | 10.1 | 18.0 | 17.5 | 13.9 | 14.3 | 6.9 | 24.6
CCC1(CC)C(=O)N(C(=O)NCCC(=O)NCCN(CCNC(C)(C)C(C)=NO)CCNC(C)(C)C(C)=NO)C1Oc1ccc(C(=O)N2CCN(C)CC2)cc1 (racemic) [Compound 51, Conjugate Between Chelate, 3,3,11,11-Tetramethyl-7-aminomethyl-4,7,10-triazatridecane-2,12-dionedioxime and 4-[4-[[(4-Methyl)piperazin-1-yl]carbonyl]phenoxy]-1-[(2-carboxy)ethylaminocarbonyl]-3,3-diethyl-2-azetidinone] | 2500 |  | some degree of selectivity for granulocytes | 3.9 | 0.4 | 11.2 | 1.9 | 13.4 | 0.8 | 1.7 | 28.7
CCC1(CC)C(=O)N(C(=O)NCc2ccccc2)C1Oc1ccc(C(=O)NCCN(CCNC(C)(C)C(C)=NO)CCNC(C)(C)C(C)=NO)cc1 (racemic) [Compound 52, Conjugate Between Chelate, 3,3,11,11-tetramethyl-7-aminomethyl-4,7,10-triazatridecane-2,12-dionedioxime and 4-[(4-carboxy)phenoxy]-1-[benzylaminocarbonyl]-3,3-diethyl-2-azetidinone] | 7800 |  | some degree of selectivity for granulocytes | 1.9 | 0.8 | 7.1 | 1.8 | 8.2 | 37.4 | 9.1 | 10.9

Further lines, with some results ahead:

Potency (1/(M·s)), kinact/Ki [1] [M⁻¹ s⁻¹] | kinact/KI ([1]; read-out: Potency (M/sec), kinact/Ki) [M⁻¹ s⁻¹] | SMILES | selectivity for granulocytes over a mixture of monocytes/lymphocytes [2] | % uptake in Gran. (granulocytes), WHITE CELLS [2] [%] | % uptake in Mon. (monocytes + lymphocytes), WHITE CELLS [2] [%] | % uptake in Eryth. (erythrocytes), WHITE AND RED CELLS [3] [%] | % uptake in Gran. (granulocytes), WHITE AND RED CELLS [3] [%] | % uptake in Mon. (monocytes + lymphocytes), WHITE AND RED CELLS [3] [%] | % uptake in Eryth. (erythrocytes), WHOLE BLOOD [4] [%] | % uptake in Gran. (granulocytes), WHOLE BLOOD [4] [%] | % uptake in Mon. (monocytes + lymphocytes), WHOLE BLOOD [4] [%]
5500 |  | CCC1(CC)C(=O)N(C(=O)NCCCCCC(=O)NCC(C)(CNC(C)(C)C(C)=NO)CNC(C)(C)C(C)=NO)C1Oc1ccc(C(=O)N2CCN(C)CC2)cc1 (racemic) [Compound 48, Conjugate Between Chelate, 3,3,6,9,9-pentamethyl-6-aminomethyl-4,8-diazaundecane-2,10-dionedioxime and 4-[4-[[(4-Methyl)piperazin-1-yl]carbonyl]phenoxy]-1-[(5-carboxy)pentylaminocarbonyl]-3,3-diethyl-2-azetidinone] | some degree of selectivity for granulocytes | 64.5 | 7.3 | 38.7 | 16.2 | 7.2 | 9.17 | 10.6 | 22.7
1350 |  | CCC1(CC)C(=O)N(C(=O)NCc2ccc(I)cc2)C1Oc1ccc(C(=O)N2CCN(C)CC2)cc1 (single isomer, unassigned) [Compound 4b] | some degree of selectivity for granulocytes | 4.8 | 0.9 | 1.6 | 3.3 | 3.8 |  |  | 
 | 600 | CCC1(CC)C(=O)N(C(=O)NCCc2cc(I)c(O)c(I)c2)C1S(=O)(=O)CCOC (centres unmarked) [Compound 17, 4-(2-Methoxyethylsulfonyl)-1-[(3,5-diiodo)(4-hydroxy)phenylethylaminocarbonyl]-3,3-diethyl-2-azetidinone] | some degree of selectivity for granulocytes | 0.4 | 0.0 |  |  |  |  |  | 
